Test results: ChEMBL document CHEMBL1133261, “Synthesis and biological evaluation of 1,3,4-triaryl-3-pyrrolin-2-ones, a new class of selective cyclooxygenase-2 inhibitors” (Bioorg Med Chem Lett, 2000)

The compounds below were run against Prostaglandin G/H synthase 1 (Homo sapiens, UniProt P23219) (assay: Biochemical index for Prostaglandin G/H synthase 1 measured as, thromboxane 2 (TXB2) levels following blood coagulation).
Prostaglandin G/H synthase 1, sequence (P23219 whole entry): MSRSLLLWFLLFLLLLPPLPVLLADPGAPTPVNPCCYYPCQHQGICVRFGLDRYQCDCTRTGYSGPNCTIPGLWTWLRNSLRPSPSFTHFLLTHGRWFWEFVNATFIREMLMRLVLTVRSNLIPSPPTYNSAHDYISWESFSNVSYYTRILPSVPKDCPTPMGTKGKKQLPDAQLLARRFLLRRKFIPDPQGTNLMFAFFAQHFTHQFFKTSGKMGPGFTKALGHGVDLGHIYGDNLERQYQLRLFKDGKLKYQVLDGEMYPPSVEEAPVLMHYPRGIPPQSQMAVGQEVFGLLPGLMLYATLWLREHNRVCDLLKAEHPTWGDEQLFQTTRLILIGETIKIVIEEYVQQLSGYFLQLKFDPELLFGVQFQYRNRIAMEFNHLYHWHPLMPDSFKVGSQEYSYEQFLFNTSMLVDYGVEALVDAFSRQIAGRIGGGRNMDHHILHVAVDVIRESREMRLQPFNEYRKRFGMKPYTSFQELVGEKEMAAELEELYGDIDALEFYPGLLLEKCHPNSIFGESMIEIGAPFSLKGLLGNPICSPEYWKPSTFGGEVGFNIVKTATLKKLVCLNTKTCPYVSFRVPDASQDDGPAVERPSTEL
Format: tissue-based
`Cc1ccc(N2CC(c3ccc(S(C)(=O)=O)cc3)=C(c3ccc(F)cc3)C2=O)cc1` gave an IC50 of 3.7 µM. For `CS(=O)(=O)c1ccc(C2=C(c3ccccc3)C(=O)N(c3ccc(C(F)(F)F)cc3)C2)cc1`, the IC50 was 5.1 µM. Work on `CS(=O)(=O)c1ccc(C2=C(c3ccc(F)cc3)C(=O)N(c3ccccc3)C2)cc1` yielded an IC50 of 2.7 µM. In the case of `CS(=O)(=O)c1ccc(C2=C(c3ccccc3)C(=O)N(c3ccccc3F)C2)cc1`, the IC50 is reported as 10.8 µM. `CS(=O)(=O)c1ccc(C2=C(c3ccc(F)c(F)c3)C(=O)N(c3ccccc3)C2)cc1` gave an IC50 of 8.2 µM. `COc1ccc(C2=C(c3ccc(S(C)(=O)=O)cc3)CN(c3ccccc3)C2=O)cc1` was tested, and the IC50 was 2.68 µM. Compound `CS(=O)(=O)c1ccc(C2=C(c3ccc(F)cc3)C(=O)N(c3ccccc3F)C2)cc1` has an IC50 of 2.5 µM. `COc1ccccc1N1CC(c2ccc(S(C)(=O)=O)cc2)=C(c2ccc(F)cc2)C1=O` was tested, and the IC50 was 4 µM. `COc1ccc(C2=C(c3ccc(S(C)(=O)=O)cc3)CN(c3cccc(F)c3)C2=O)cc1` showed an IC50 of 2.5 µM. For `COc1ccc(C2=C(c3ccc(S(C)(=O)=O)cc3)CN(c3ccc(F)cc3)C2=O)cc1`, the IC50 was 2.5 µM. Compound `CS(=O)(=O)c1ccc(C2=C(c3ccccc3)C(=O)N(c3ccc(F)cc3)C2)cc1` has an IC50 of 5.86 µM. Work on `Cc1ccc(N2CC(c3ccc(S(C)(=O)=O)cc3)=C(c3ccccc3)C2=O)cc1` yielded an IC50 of 6.9 µM. For `CS(=O)(=O)c1ccc(C2=C(c3ccc(F)cc3)C(=O)N(c3ccc(C(F)(F)F)cc3)C2)cc1`, the IC50 was 7.2 µM. Work on `COc1ccc(C2=C(c3ccc(S(C)(=O)=O)cc3)CN(c3ccccc3Cl)C2=O)cc1` yielded an IC50 of 2.3 µM. `CS(=O)(=O)c1ccc(C2=C(c3ccccc3)C(=O)N(c3cccc(Cl)c3)C2)cc1` was tested, and the IC50 was 9.8 µM. `COc1ccc(N2CC(c3ccc(S(C)(=O)=O)cc3)=C(c3ccc(F)cc3)C2=O)cc1` gave an IC50 of 5.28 µM. `CS(=O)(=O)c1ccc(C2=C(c3ccccc3)C(=O)N(c3ccccc3)C2)cc1` showed an IC50 of 2.4 µM.
